Measurements from patent publication US20130202653A1, “3-ARYL-3-HYDROXY-2-AMINO-PROPIONIC ACID AMIDES, 3-HETEROARYL-3-HYDROXY-2-AMINOPROPIONIC ACID AMIDES AND RELATED COMPOUNDS HAVING ANALGESIC AND/OR IMMUNO STIMULANT ACTIVITY” (Allergan, Inc., priority 2005, published 2013).
Where a name gives a salt, the structure may show the parent alone. Read-outs that look alike come from different tables or passages of the source.

Tested on: tactile allodynia in the rat Chung model
Assay: Chung model: reversal of tactile allodynia (von Frey hairs) after spinal nerve ligation
Type: in vivo
Text: An art-accepted model or assay for measuring an analgesic effect of a compound in chronic pain (in particular peripheral neuropathy) is the model known as Kim and Chung 1992, Pain […], pp 355-363 (Chung model). This model involves the surgical ligation of the L5 (and optionally the L6) spinal nerves on one side in experimental animals. Rats recovering from the surgery gain weight and display a level of general activity similar to that of normal rats. However, these rats develop abnormalities of the foot, wherein the hindpaw is moderately everted and the toes are held together. More importantly, the hindpaw on the side affected by the surgery appears to become sensitive to low-threshold mechanical stimuli and will perceive pain instead of the faint sensation of touch. This sensitivity to normally non-painful touch, called “tactile allodynia”, develops within the first week after surgery and lasts for at least two months. The allodynia response includes lifting the affected hindpaw to escape from the stimulus, licking the paw and holding it in the air for many seconds. None of these responses is normally seen in the control group.
To produce the tactile allodynia, rats are anesthetized before surgery. The surgical site is shaved and prepared either with betadine or Novacaine. Incision is made from the thoracic vertebra X111 down toward the sacrum. Muscle tissue is separated from the spinal vertebra (left side) at the L4-S2 levels. The L6 vertebra is located and the transverse process is carefully removed with a small rongeur to expose the L4-L6 spinal nerves. The L5 and L6 spinal nerves are isolated and tightly ligated with 6-0 silk thread. The same procedure is done on the right side as a control, except no ligation of the spinal nerves is performed.
After a complete hemostasis is confirmed, the wounds are sutured. A small amount of antibiotic ointment is applied to the incised area, and the rat is transferred to the recovery plastic cage under a regulated heat-temperature lamp.
On the day of the experiment, at least seven days after the surgery, typically six rats per test group are administered the test drugs by intraperitoneal (i.p.) injection or oral gavage (p.o.). For i.p. administration, the compounds are formulated in H2O and given in a volume of 1 ml/kg body weight by injecting into the intraperitoneal cavity. For p.o. administration, the compounds are formulated in H2O and given in a volume of 1 ml/kg body weight using an 18-gauge, 3 inch gavage needle that is slowly inserted through the esophagus into the stomach.
Tactile allodynia is assessed via von Frey hairs, which are a series of fine hairs with incremental differences in stiffness. Rats are placed in a plastic cage with a wire mesh bottom and allowed to acclimate for approximately 30 minutes. To establish the pre-drug baseline, the von Frey hairs are applied perpendicularly through the mesh to the mid-plantar region of the rats' hindpaw with sufficient force to cause slight buckling and held for 6-8 seconds. The applied force has been calculated to range from 0.41 to 15.1 grams. If the paw is sharply withdrawn, it is considered a positive response. A normal animal will not respond to stimuli in this range, but a surgically ligated paw will be withdrawn in response to a 1-2 gram hair. The 50% paw withdrawal threshold is determined using the method of Dixon, W. J., Ann. Rev. Pharmacol. Toxicol. 20:441-462 (1980) hereby incorporated by reference. Tactile allodynia is measured prior to and 15, 30, and 60 minutes after drug administration. The post-drug threshold is compared to the pre-drug threshold and the percent reversal of tactile sensitivity is calculated based on a normal threshold of 15.1 grams.
Table 1 below indicates the degree of pain reversal obtained in the Chung model with exemplary compounds of the invention. […]

[1] = Rattus norvegicus, ip, 1 h, 300 μg/kg IP, peak at 60 min post dose, read-out: Peak % Pain reversal: time post dose
[2] = Rattus norvegicus, ip, 1 h, 30 μg/kg IP, peak at 60 min post dose, read-out: Peak % Pain reversal: time post dose
[3] = Rattus norvegicus, ip, 0.5 h, 300 μg/kg IP, peak at 30 min post dose, read-out: Peak % Pain reversal: time post dose

Compound	inhibition in vivo at 0.3 mg/kg [1] [%]	further results
N[C@@H](C(=O)N1CCCC1)[C@@H](O)c1cccs1 (racemic) [Compound 24, DL-threo-2-Amino-3-hydroxy-1-(pyrrolidin-1-yl)-3-(thiophen-2-yl)propan-1-one hydrochloride]	60	–
CCCCCCCCCC(=O)N[C@@H](C(=O)N1CCCC1)[C@@H](O)c1ccncc1 (racemic) [Compound 59, N-(DL-threo-3-hydroxy-1-oxo-3-(pyridin-4-yl)-1-(pyrrolidin-1-yl)propan-2-yl)decanamide hydrochloride]	92	–
N[C@@H](C(=O)N1CCCC1)[C@H](O)c1ccncc1 (racemic) [Compound 219, (±)-erythro-2-amino-3-hydroxy-3-(pyridin-4-yl)-1-(pyrrolidin-1-yl)propan-1-one dihydrochloride]	–	inhibition in vivo at 0.03 mg/kg [2]: 82%
O=C([C@H](NC1CCCCC1)[C@@H](O)c1ccncc1)N1CCCC1 (racemic) [Compound 69]	–	inhibition in vivo at 0.3 mg/kg [3]: 63%
N[C@@H](C(=O)N1CCCC1)[C@@H](O)c1ccsc1 (racemic) [Compound 23, DL-threo-2-Amino-3-hydroxy-1-(pyrrolidin-1-yl)-3-(thiophen-3-yl)propan-1-one hydrochloride]	–	inhibition in vivo at 0.03 mg/kg (Rattus norvegicus, po, 1 h, 30 μg/kg PO, peak at 60 min post dose, read-out: Peak % Pain reversal: time post dose): 100%
O=C(N[C@@H](C(=O)N1CCCC1)[C@@H](O)c1ccncc1)OCc1ccccc1 (racemic) [Compound 58, Benzyl DL-threo-3-hydroxy-1-oxo-3-(pyridin-4-yl)-1-(pyrrolidin-1-yl)propan-2-ylcarbamate hydrochloride]	75	–
O=C([C@@H](NCc1cccc(I)c1)[C@H](O)c1ccncc1)N1CCCC1 [Compound 228, (+)-(2S,3R)-2-(3-iodobenzylamino)-3-hydroxy-3-(pyridin-4-yl)-1-(pyrrolidin-1-yl)-propan-1-one dihydrochloride]	36	–
O=CN[C@@H](C(=O)N1CCCC1)[C@@H](O)c1ccncc1 (racemic) [Compound 216, N-((±)-threo-1-hydroxy-3-oxo-1-(pyridin-4-yl)-3-(pyrrolidin-1-yl)propan-2-yl)formamide hydrochloride]	100	–
NC(C(=O)N1CCCC1)C(O)c1ccsc1 (single isomer, unassigned; (+)) [Compound 205, (+)-threo-2-Amino-3-hydroxy-1-(pyrrolidin-1-yl)-3-(thiophen-3-yl)propan-1-one hydrochloride]	–	inhibition in vivo at 0.3 mg/kg [3]: 62%
O=C([C@H](NCc1ccc(Cl)c(Cl)c1)[C@@H](O)c1ccncc1)N1CCCC1 (racemic) [Compound 68, DL-threo-2-(3,4-Dichlorobenzylamino)-3-hydroxy-3-(pyridin-4-yl)-1-(pyrrolidin-1-yl)propan-1-one dihydrochloride]	–	inhibition in vivo at 0.3 mg/kg (Rattus norvegicus, po, 1 h, 300 μg/kg PO, peak at 60 min post dose, read-out: Peak % Pain reversal: time post dose): 94%
N[C@@H](C(=O)N1CC=CC1)[C@@H](O)c1ccnc(Cl)c1 (racemic) [Compound 34, DL-threo-2-Amino-3-(2-chloropyridin-4-yl)-3-hydroxy-1-(2H-pyrrol-1 (5H)-yl)propan-1-one dihydrochloride]	62	–
C[C@@](O)(c1ccncc1)[C@@H](N)C(=O)N1CCCC1 (racemic) [Compound 239, (±)-erythro-2-Amino-3-hydroxy-3-(pyridin-4-yl)-1-(pyrrolidin-1-yl)butan-1-one dihydrochloride]	–	inhibition in vivo at 0.3 mg/kg [3]: 75%
N[C@H](C(=O)N1CCCC1)[C@H](O)c1ccncc1 [Compound 204, (+)-(2S,3R)-2-Amino-3-hydroxy-3-(pyridin-4-yl)-1-(pyrrolidin-1-yl)propan-1-one dihydrochloride]	50	–
O=C(N[C@@H](C(=O)N1CCCC1)[C@@H](O)c1ccncc1)c1ccccc1 (racemic) [Compound 55, N-(DL-threo-1-Hydroxy-3-oxo-1-(pyridin-4-yl)-3-(pyrrolidin-1-yl)propan-2-yl)benzamide hydrochloride]	58	–
N[C@@H](C(=O)N1CCCC1)[C@@H](O)c1ccc2ccccc2n1 (racemic) [Compound 30, DL-threo-2-Amino-3-hydroxy-1-(pyrrolidin-1-yl)-3-(quinolin-2-yl)propan-1-one dihydrochloride]	53	–
CC(C)(C)OC(=O)N[C@@H](C(=O)N1CCCC1)[C@@H](O)c1ccncc1 (racemic) [Compound 218, tert-butyl(±)-threo-1-hydroxy-3-oxo-1-(pyridin-4-yl)-3-(pyrrolidin-1-yl)propan-2-ylcarbamate hydrochloride]	32	–
CN[C@@H](C(=O)N1CCCC1)[C@@H](O)c1ccncc1 (racemic) [Compound 61, DL-threo-3-Hydroxy-2-(methylamino)-3-(pyridin-4-yl)-1-(pyrrolidin-1-yl)propan-1-one dihydrochloride]	64	–
CCCCCCCN[C@@H](C(=O)N1CCCC1)[C@@H](O)c1ccncc1 (racemic) [Compound 64, DL-threo-3-Hydroxy-2-(heptylamino)-3-(pyridin-4-yl)-1-(pyrrolidin-1-yl)propan-1-one dihydrochloride]	–	inhibition in vivo at 0.3 mg/kg [3]: 100%
N[C@@H](C(=O)N1CCCC1)[C@@H](O)c1cccnc1 (racemic) [Compound 20, DL-threo-2-Amino-3-hydroxy-3-(pyridin-3-yl)-1-(pyrrolidin-1-yl)propan-1-one dihydrochloride]	–	inhibition in vivo at 0.03 mg/kg [2]: 92%
N[C@@H](C(=O)N1CCCC1)[C@@H](O)c1ccncc1Cl (racemic) [Compound 43, DL-threo-2-Amino-3-(3-chloropyridin-4-yl)-3-hydroxy-1-(pyrrolidin-1-yl)propan-1-one dihydrochloride]	96	–
Cl.Cl.N[C@H](C(=O)N1CC[C@H](F)C1)[C@H](O)c1ccsc1 [Compound 256, (2S,3R)- & (2R,3S)-2-Amino-1-((S)-3-fluoropyrrolidin-1-yl)-3-hydroxy-3-(thiophen-3-yl)propan-1-one dihydrochlorides]	–	Peak % Pain reversal: time post dose (300 μg/kg IP, peak at 60 min post dose): 62% 60 min
N[C@@H](C(=O)N1CCCC1)[C@@H](O)c1ccncc1 [Compound 203, (−)-(2R,3S)-2-Amino-3-hydroxy-3-(pyridin-4-yl)-1-(pyrrolidin-1-yl)propan-1-one dihydrochloride]	87	–
N[C@@H](C(=O)N1CCCC1)[C@@H](O)c1ccc[nH]c1=O (racemic) [Compound 49, 3-(DL-threo-2-Amino-1-hydroxy-3-oxo-3-pyrrolidin-1-yl-propyl)-1H-pyridin-2-one hydrochloride]	–	inhibition in vivo at 0.1 mg/kg (Rattus norvegicus, ip, 1 h, 100 μg/kg IP, peak at 60 min post dose, read-out: Peak % Pain reversal: time post dose): 85%
N[C@@H](C(=O)N1CCOCC1)[C@@H](O)c1cccnc1 (racemic) [Compound 232, (±)-threo-2-Amino-3-hydroxy-1-morpholino-3-(pyridin-3-yl)propan-1-one dihydrochloride]	80	–
N[C@@H](C(=O)N1CCOCC1)[C@@H](O)c1ccsc1 (racemic) [Compound 230, (±)-threo-2-Amino-3-hydroxy-1-morpholino-3-(thiophen-3-yl)propan-1-one hydrochloride]	–	inhibition in vivo at 0.3 mg/kg [3]: 52%
NC(C(=O)N1CC[C@@H](F)C1)C(O)c1ccncc1 (stereo partly drawn) [Compound 215, (2S,3R)- & (2R,3S)-2-Amino-1-((R)-3-fluoropyrrolidin-1-yl)-3-hydroxy-3-(pyridin-4-yl)propan-1-one dihydrochlorides]	73	–
N[C@@H](C(=O)N1CCCC1)[C@H](O)c1ccncc1 [Compound 220, (−)-(2R,3R)-2-amino-3-hydroxy-3-(pyridin-4-yl)-1-(pyrrolidin-1-yl)propan-1-one dihydrochloride]	–	inhibition in vivo at 0.3 mg/kg [3]: 32%
